One assay deals with T1, Rat M4 (Rattus norvegicus, UniProt P08485).
T1 construct: expressed in transfected cells; host or cells: CHO-K1 (ATCC), stably co-expressing chimeric G protein Gqi5
T1 sequence (P08485 1-478): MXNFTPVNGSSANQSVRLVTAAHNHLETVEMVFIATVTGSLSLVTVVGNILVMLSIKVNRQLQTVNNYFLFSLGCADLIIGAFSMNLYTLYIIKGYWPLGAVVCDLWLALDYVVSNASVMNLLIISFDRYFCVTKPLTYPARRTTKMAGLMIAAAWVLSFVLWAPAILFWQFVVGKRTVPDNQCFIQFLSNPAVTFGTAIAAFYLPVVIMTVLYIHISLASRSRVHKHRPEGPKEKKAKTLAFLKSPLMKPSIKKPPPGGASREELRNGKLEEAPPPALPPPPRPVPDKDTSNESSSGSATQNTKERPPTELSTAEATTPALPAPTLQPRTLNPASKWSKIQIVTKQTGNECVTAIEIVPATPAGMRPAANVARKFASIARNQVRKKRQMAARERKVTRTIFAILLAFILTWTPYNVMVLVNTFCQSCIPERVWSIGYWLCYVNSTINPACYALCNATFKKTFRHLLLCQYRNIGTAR
The experiment in a line: mAChR M4 cell-based functional assay (calcium flux, antagonist mode vs EC80 acetylcholine), rat M4/Gqi5/CHO-K1 cells. As to conditions: for remaining activity at 30 µM: CHO-K1, % ACh maximum at 30 μM, rat M4, read-out: Rat M4 Emin (%); for IC50: decrease of response elicited by EC80 acetylcholine, rat M4/Gqi5 CHO-K1 cells. As to the method:
(§1) Human or rat M4 cDNA, along with the chimeric G protein Gqi5, were transfected into Chinese hamster ovary (CHO-K1) cells purchased from the American Type Culture Collection using Lipofectamine2000. M4/Gqi5/CHO cells were grown in Ham's F-12 medium containing 10% heat-inactivated fetal bovine serum (FBS), 20 mM HEPES, 500 μg/mL G418 sulfate, and 200 μg/mL Hygromycin B.
(§2) For high throughput measurement of agonist-evoked increases in intracellular calcium, CHO-K1 cells stably expressing muscarinic receptors were plated in growth medium lacking G418 and hygromycin at 15,000 cells/20 μL/well in Greiner 384-well black-walled, tissue culture (TC)-treated, clear-bottom plates (VWR). Cells were incubated overnight at 37° C. and 5% CO2. The next day, cells were washed using an ELX 405 (BioTek) with assay buffer; the final volume was then aspirated to 20 μL. Next, 20 μL of a 2.3 μM stock of Fluo-4/acetoxymethyl ester (Invitrogen, Carlsbad, Calif.), prepared as a 2.3 mM stock in DMSO and mixed in a 1:1 ratio with 10% (w/v) Pluronic F-127 and diluted in assay buffer, was added to the wells and the cell plates were incubated for 50 min at 37° C. and 5% CO2. Dye was removed by washing with the ELX 405 and the final volume was aspirated to 20 μL. Compound master plates were formatted in a 10 point concentration-response curve (CRC) format (1:3 dilutions) in 100% DMSO with a starting concentration of 10 or 1 mM using a BRAVO liquid handler (Agilent). Test compound CRCs were then transferred to daughter plates (240 nL) using the Echo acoustic plate reformatter (Labcyte, Sunnyvale, Calif.) and then diluted into assay buffer (40 μL) to a 2× stock using a Thermo Fisher Combi (Thermo Fisher Scientific, Waltham, Mass.).
(§3) Calcium flux was measured using the Functional Drug Screening System (FDSS) 6000 or 7000 (Hamamatsu Corporation, Tokyo, Japan) as an increase in the fluorescent static ratio. Compounds were applied to cells (20 μL, 2×) using the automated system of the FDSS at 2 seconds into the protocol and the data were collected at 1 Hz. At 143 s, 10 μL of an EC20 concentration of the muscarinic receptor agonist acetylcholine was added (5×), followed by the addition of 12 μL of an EC80 concentration of acetylcholine at the 268 s time point (5×). Agonist activity was analyzed as a concentration-dependent increase in calcium mobilization upon compound addition. Positive allosteric modulator activity was analyzed as a concentration-dependent increase in the EC20 acetylcholine response. Antagonist activity was analyzed as a concentration-dependent decrease in the EC80 acetylcholine response; for the purposes of the tables herein, an IC50 (inhibitory concentration 50) was calculated as a concentration-dependent decrease of the response elicited by an EC80 concentration of acetylcholine. Concentration-response curves were generated using a four-parameter logistical equation in XLFit curve fitting software (IDBS, Bridgewater, N.J.) for Excel (Microsoft, Redmond, Wash.) or Prism (GraphPad Software, Inc., San Diego, Calif.) or the Dotmatics software platform (Dotmatics, Bishop's Stortford, UK).
(§4) Compounds were synthesized as described above. Activity (IC50 and Emin) was determined in the mAChR M4 cell-based functional assay as described above and the data are shown in Table 2.

The next assay addresses T2, Human M4 (Homo sapiens, UniProt P08173).
T2 construct: expressed in transfected cells; host or cells: CHO-K1 (ATCC), stably co-expressing chimeric G protein Gqi5
T2 sequence (P08173 1-479): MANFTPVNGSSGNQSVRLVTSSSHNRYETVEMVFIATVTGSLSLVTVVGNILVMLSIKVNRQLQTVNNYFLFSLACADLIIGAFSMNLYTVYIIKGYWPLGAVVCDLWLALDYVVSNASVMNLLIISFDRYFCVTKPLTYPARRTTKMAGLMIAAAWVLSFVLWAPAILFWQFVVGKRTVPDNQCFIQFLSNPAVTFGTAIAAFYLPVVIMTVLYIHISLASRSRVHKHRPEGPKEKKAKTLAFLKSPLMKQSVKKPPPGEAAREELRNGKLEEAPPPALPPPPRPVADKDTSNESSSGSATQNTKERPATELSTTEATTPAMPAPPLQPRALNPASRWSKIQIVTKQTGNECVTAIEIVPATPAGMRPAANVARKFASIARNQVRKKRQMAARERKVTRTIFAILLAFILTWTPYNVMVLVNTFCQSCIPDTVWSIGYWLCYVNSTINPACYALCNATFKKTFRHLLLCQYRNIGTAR
The assay is described as follows: mAChR M4 cell-based functional assay (calcium flux, antagonist mode vs EC80 acetylcholine), human M4/Gqi5/CHO-K1 cells. As to conditions: for remaining activity at 30 µM: CHO-K1, % ACh maximum at 30 μM, human M4, read-out: Human M4 Emin (%); for IC50: decrease of response elicited by EC80 acetylcholine, human M4/Gqi5 CHO-K1 cells. As to the method:
as §1, §2, §3, §4

Turning to `Fc1ccc(Cl)c(-c2ccc(N[C@H]3C[C@@H]4CN(C5CCC6(CCCCC6)CC5)C[C@@H]4C3)nn2)c1` [compound 77, (3aR,5s,6aS)-N-(6-(2-chloro-5-fluorophenyl)pyridazin-3-yl)-2-(spiro[5.5]undecan-3-yl)octahydrocyclopenta[c]pyrrol-5-amine], on Rat M4, the remaining activity at 30 µM came out at 7% and the IC50 was found to be 387 nM. Further, at Human M4, the remaining activity at 30 µM came out at 3% and the concentration for half-maximal inhibition (IC50) was 25.7 nM.

Take `Cc1cnn(C)c1-c1ccc(N[C@H]2C[C@@H]3CN(C4CCOC(C)(C)C4)C[C@@H]3C2)nn1` (stereo partly drawn) [compound 57, (3aR,5s,6aS)-N-(6-(1,4-dimethyl-1H-pyrazol-5-yl)pyridazin-3-yl)-2-(2,2-dimethyltetrahydro-2H-pyran-4-yl)octahydrocyclopenta[c]pyrrol-5-amine]: at Rat M4, the remaining activity at 30 µM amounted to 9% and the half-maximal inhibitory concentration (IC50) was 2030 nM. At Human M4, the remaining activity at 30 µM is 2% and the IC50 is 28.9 nM.

Take `CC1(C)CC(N2C[C@H]3C[C@H](Nc4ccc(-c5cc(F)ccc5Cl)nn4)C[C@H]3C2)CC(C)(C)O1` [compound 18, (3aR,5s,6aS)-N-(6-(2-chloro-5-fluorophenyl)pyridazin-3-yl)-2-(2,2,6,6-tetramethyltetrahydro-2H-pyran-4-yl)octahydrocyclopenta[c]pyrrol-5-amine]: the remaining activity at 30 µM at Rat M4 and at Human M4 was 4% each time. The IC50 on Rat M4 came to 513 nM; on Human M4, 15 nM.

As to `CC(=O)Nc1ccc(-c2ccc(N[C@H]3C[C@@H]4CN(C5CCOC(C)(C)C5)C[C@@H]4C3)nn2)cn1` (stereo partly drawn) [compound 59, N-(5-(6-(((3aR,5s,6aS)-2-(2,2-dimethyltetrahydro-2H-pyran-4-yl)octahydrocyclopenta[c]pyrrol-5-yl)amino)pyridazin-3-yl)pyridin-2-yl)acetamide], on Rat M4, the remaining activity at 30 µM was determined as 6% and the half-inhibitory concentration (IC50) came to 319 nM. Moreover, at Human M4, the remaining activity at 30 µM was determined as 4% and the IC50 is 76.1 nM.

On to `O=C(c1ccc(N[C@H]2C[C@@H]3CN(CC4CCOCC4)C[C@@H]3C2)nn1)N1CCCCC1` [compound 5, piperidin-1-yl(6-(((3aR,5s,6aS)-2-((tetrahydro-2H-pyran-4-yl)methyl)octahydrocyclopenta[c]pyrrol-5-yl)amino)pyridazin-3-yl)methanone], for which, at Rat M4, the remaining activity at 30 µM worked out at 14% and the IC50 was over 10000 nM. Besides, at Human M4, the remaining activity at 30 µM came out at 14% and the IC50 was 5.45 nM.

With `O=C(c1ccc(N[C@H]2C[C@@H]3CN(CC4CCOCC4)C[C@@H]3C2)nn1)N1CCOCC1` [compound 6, morpholino(6-(((3aR,5s,6aS)-2-((tetrahydro-2H-pyran-4-yl)methyl)octahydrocyclopenta[c]pyrrol-5-yl)amino)pyridazin-3-yl)methanone], on Rat M4, the remaining activity at 30 µM is 13% and the IC50 amounted to 7430 nM. In addition, at Human M4, the remaining activity at 30 µM turned out to be 21% and the IC50 was determined as 11.7 nM.

Take `CC1(C)CC(N2C[C@H]3C[C@H](Nc4ccc(-c5cc(F)ccc5F)nn4)C[C@H]3C2)CCO1` (stereo partly drawn) [compound 55, (3aR,5s,6aS)-N-(6-(2,5-difluorophenyl)pyridazin-3-yl)-2-(2,2-dimethyltetrahydro-2H-pyran-4-yl)octahydrocyclopenta[c]pyrrol-5-amine]: the remaining activity at 30 µM on Rat M4 stood at 5%; on Human M4, 3%. Also, the IC50 on Rat M4 is 425 nM; at Human M4 it was 13.5 nM.

Turning to `N#Cc1ccccc1N1C[C@H]2C[C@H](Nc3ccc(-c4cc(F)ccc4Cl)nn3)C[C@H]2C1` [compound 17, 2-((3aR,5s,6aS)-5-((6-(2-chloro-5-fluorophenyl)pyridazin-3-yl)amino)hexahydrocyclopenta[c]pyrrol-2(1H)-yl)benzonitrile], at Human M4, the remaining activity at 30 µM is 57% and the IC50 is at least 10000 nM.

On to `O=C(NC1CCCCC1)c1ccc(N[C@H]2C[C@@H]3CN(CC4CCOCC4)C[C@@H]3C2)nn1` [compound 4, N-cyclohexyl-6-(((3aR,5s,6aS)-2-((tetrahydro-2H-pyran-4-yl)methyl)octahydrocyclopenta[c]pyrrol-5-yl)amino)pyridazine-3-carboxamide], for which, at Human M4, the remaining activity at 30 µM was 6% and the IC50 was found to be 535 nM.

Regarding `O=C(NC1CC1)c1ccc(N[C@H]2C[C@@H]3CN(CC4CCOCC4)C[C@@H]3C2)nn1` [compound 3, N-cyclopropyl-6-(((3aR,5s,6aS)-2-((tetrahydro-2H-pyran-4-yl)methyl)octahydrocyclopenta[c]pyrrol-5-yl)amino)pyridazine-3-carboxamide], at Human M4, the remaining activity at 30 µM was 9% and the IC50 is 417 nM.

With `CC1(C)CC(N2C[C@H]3C[C@H](Nc4ncc(-c5ccccc5)s4)C[C@H]3C2)CCO1` (stereo partly drawn) [compound 19, N-((3aR,5s,6aS)-2-(2,2-dimethyltetrahydro-2H-pyran-4-yl)octahydrocyclopenta[c]pyrrol-5-yl)-5-phenylthiazol-2-amine], on Rat M4, the remaining activity at 30 µM turned out to be 70% and the IC50 is over 10000 nM.

For `O=C(Nc1cccc(F)c1)c1ccc(N[C@H]2C[C@@H]3CN(CC4CCOCC4)C[C@@H]3C2)nn1` [compound 9, N-(3-fluorophenyl)-6-(((3aR,5s,6aS)-2-((tetrahydro-2H-pyran-4-yl)methyl)octahydrocyclopenta[c]pyrrol-5-yl)amino)pyridazine-3-carboxamide], on Human M4, the remaining activity at 30 µM turned out to be 3% and the IC50 came to 713 nM.

Regarding `CC1(C)CC(N2C[C@H]3C[C@H](Nc4ccc5nncn5n4)C[C@H]3C2)CCO1` (stereo partly drawn) [compound 61, N-((3aR,5s,6aS)-2-(2,2-dimethyltetrahydro-2H-pyran-4-yl)octahydrocyclopenta[c]pyrrol-5-yl)-[1,2,4]triazolo[4,3-b]pyridazin-6-amine], at Human M4, the remaining activity at 30 µM amounted to 52% and the IC50 was over 10000 nM.

Source of the values: patent US20230183218A1, “CONDENSED SUBSTITUTED HYDROPYRROLES AS ANTAGONISTS OF THE MUSCARINIC ACETYLCHOLINE RECEPTOR M4” (Vanderbilt University, priority 2020, published 2023).
